Values joined by “and” are separate entries in the source; they are usually repeats but may differ in a detail not shown here. Identical values can stand only once. Like-named read-outs stand apart in the source and are kept apart here.
Key:
Cercospora beticola [1] = assay: in vitro-Test with fungal microorganisms, Method B (tables C11-C20); type: cell-based
Method in brief: (§1)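 Steps: solvent evaporation leaves the compound coating the wells; fungus-inoculated liquid growth medium goes on top; absorbance at 600 nm is measured; incubation runs 3 to 7 days at 20° C. with 85% relative humidity. Inhibition is then read photometrically and expressed as efficacy against untreated control.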

Cordana musae = assay: in vitro-Test with fungal microorganisms, Method B (tables E9-E16); type: cell-based; conditions: single active
Method in brief: as §1

Fusarium culmorum = assay: in vitro-Test with fungal microorganisms, Method B (tables G5-G15); type: cell-based
Method in brief: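 Compound in methanol plus alkylaryl-polyglycol-ether emulsifier dried in wells, then liquid medium containing Fusarium culmorum spores or mycelium added. Incubated 3-7 days at 20° C, 85% relative humidity; growth read at 600 nm. Efficacy relative to untreated control (0% equals control growth, 100% none).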

Alternaria alternata = assay: in vitro-Test with fungal microorganisms, Method B (tables A13-A22); type: cell-based
Method in brief: as §1

Parastagonospora nodorum = assay: in vitro-Test with fungal microorganisms, Method B (tables H5-H8); type: cell-based
Procedure: (§2) Example: In Vitro-Test with Fungal Microorganisms
(§3) Wells of 96-well microtiter plates are filled with 30 μl of a preparation of test compound or compound combination in methanol+emulsifier alkylaryl-polyglycol-ether. Thereafter, the solvent is evaporated in a hood. At the next step, 200 μl of liquid growth medium is given, that has been amended with an appropriate concentration of spores or mycelium suspension of the test fungus.
(§4) With the aid of a photometer, the extinction in all wells is measured at the wavelength of 600 nm.
(§5) The microtiter plates are incubated for 3 to 7 days at 20° C. and 85% relative humidity. After the incubation inhibition of growth is determined photometrically. Efficacy is calculated in relation to the untreated control, 0% efficacy means fungal growth as high as in untreated control while 100% efficacy means no fungal growth is measured.
(§6) The data in tables A1 to A12, B1 to B14, C1 to C10, D1 to D8, E1 to E8, F1 to F11, G1 to G4, H1 to H4 and I1 to I5 were collected according to Method A. The data in tables A13 to A22, B15 to B18, C11 to C20, E9 to E16, F12 to F15, G5 to G15, H5 to H8, I6 to I11 and J1 to J11 were collected according to Method B.

Colletotrichum coccodes = assay: in vitro-Test with fungal microorganisms, Method B (tables J1-J11); type: cell-based
Method in brief: as §1

Botrytis cinerea [2] = assay: in vitro-Test with fungal microorganisms, Method B (tables B15-B18); type: cell-based
Method in brief: as §1

Diaporthe citri [3] = assay: in vitro-Test with fungal microorganisms, Method B (tables F12-F15); type: cell-based
Procedure: as §2, §3, §4, §5, §6

[4] = test system: Ustilago segetum var. avenae; assay: in vitro-Test with fungal microorganisms, Method B (tables I6-I11); type: cell-based
Method in brief: as §1

Botrytis cinerea [5] = assay: in vitro-Test with fungal microorganisms, Method A (tables B1-B14); type: cell-based; conditions: Botrytis cinerea, alone, read-out: Efficacy %
Method in brief: (§7)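 Methanol/emulsifier compound solution evaporated in well; liquid potato dextrose medium + spore or mycelium suspension added; 20° C, 85% RH, 3-5 d; photometric read 620 nm; % efficacy vs untreated.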

Diaporthe citri [6] = assay: in vitro-Test with fungal microorganisms, Method A (tables F1-F11); type: cell-based; conditions: Diaporthe citri, read-out: Efficacy
Method in brief: as §7

[7] = test system: Colletotrichum lindemuthianum; assay: in vitro-Test with fungal microorganisms, Method A (tables D1-D8); type: cell-based; conditions: Colletotrichum lindemuthianum, mixing partner alone, read-out: Efficacy %
Method in brief: as §7

Alternaria alternate = assay: in vitro-Test with fungal microorganisms, Method A (tables A1-A12); type: cell-based, Alternaria alternata; conditions: Alternaria, applied alone, read-out: Efficacy %
Method in brief: as §7

Cercospora beticola [8] = assay: in vitro-Test with fungal microorganisms, Method A (tables C1-C10); type: cell-based; conditions: Cercospora beticola, read-out: Efficacy %
Method in brief: as §7

[9] = single active compound, 0.2 ppm

Compound: Cc1nn(C)c(F)c1C(=O)Nc1ccccc1C(C)CC(C)C (centres unmarked) [(2.017) penflufen, penflufen]
- Efficacy % (Cercospora beticola [1]; single compound, 1 ppm): 0%
- Efficacy (Cordana musae; 0.04 ppm): 0%
- Efficacy (Cordana musae; 0.2 ppm): 0%
- Efficacy (Cordana musae; 1 ppm): 0%
- Efficacy (Fusarium culmorum; 0.04 ppm alone): 4%
- Efficacy (Fusarium culmorum; [9]): 10% and 2%
- Efficacy (Fusarium culmorum; single active compound, 1 ppm): 11%
- Efficacy (Fusarium culmorum; single active compound, 5 ppm): 11% and 8%
- Efficacy (Alternaria alternata; 0.2 ppm): 22%
- Efficacy (Alternaria alternata; 5 ppm): 72%
- Efficacy (Parastagonospora nodorum; 0.04 ppm): 0%
- Efficacy (Parastagonospora nodorum; 0.2 ppm): 5%
- Efficacy % (Colletotrichum coccodes; single active compound at 1 ppm): 0%
- Efficacy % (Colletotrichum coccodes; single active compound at 5 ppm): 27%
- Efficacy % (Botrytis cinerea [2]; 0.04 ppm alone): 0%
- Efficacy % (Botrytis cinerea [2]; 5 ppm alone): 70%
- Efficacy (Diaporthe citri [3]; Table F15, 0.04 ppm alone): 0%
- Efficacy (Diaporthe citri [3]; Table F15, 0.2 ppm alone): 2%
- Efficacy (Diaporthe citri [3]; Table F15, 1 ppm alone): 0%
- Efficacy (Diaporthe citri [3]; Table F15, 5 ppm alone): 3%

Compound: Cc1cccc(-n2nnn(C)c2=O)c1COc1ccn(-c2ccc(Cl)cc2)n1 [(3.030) metyltetraprole, metyltetraprole]
- Efficacy % (Cercospora beticola [1]; single compound, 0.04 ppm): 100%
- Efficacy % (Cercospora beticola [1]; single compound, 0.2 ppm): 100%
- Efficacy % ([4]; 0.2 ppm): 0%
- Efficacy (Cordana musae; 0.008 ppm): 0%
- Efficacy (Cordana musae; 0.04 ppm): 0%
- Efficacy (Cordana musae; 0.2 ppm): 19%
- Efficacy (Cordana musae; 1 ppm): 70%
- Efficacy (Fusarium culmorum; 0.2 ppm alone): 13%
- Efficacy (Fusarium culmorum; single active compound, 0.008 ppm): 7% and 0%
- Efficacy (Fusarium culmorum; single active compound, 0.04 ppm): 8% and 0%
- Efficacy (Fusarium culmorum; [9]): 6% and 5%
- Efficacy (Fusarium culmorum; single active compound, 1 ppm): 8% and 2%
- Efficacy (Alternaria alternata; 0.008 ppm): 0%
- Efficacy (Alternaria alternata; 1 ppm): 87%
- Efficacy (Parastagonospora nodorum; 0.04 ppm): 38%
- Efficacy (Parastagonospora nodorum; 1 ppm): 84%
- Efficacy % (Colletotrichum coccodes; single active compound at 0.04 ppm): 0%
- Efficacy % (Colletotrichum coccodes; single active compound at 0.2 ppm): 1%
- Efficacy % (Botrytis cinerea [2]; 0.008 ppm alone): 7%
- Efficacy % (Botrytis cinerea [2]; 0.04 ppm alone): 11%
- Efficacy % (Botrytis cinerea [2]; 0.2 ppm alone): 7%
- Efficacy % (Botrytis cinerea [2]; 1 ppm alone): 33%
- Efficacy (Diaporthe citri [3]; Table F14, 0.2 ppm alone): 86%

Compound: COCC(=O)N(c1c(C)cccc1C)[C@H](C)C(=O)OC [(12.004) metalaxyl-M, metalaxyl-M (mefenoxam)]
- Efficacy % (Cercospora beticola [1]; 4 ppm): 10%
- Efficacy % (Cercospora beticola [1]; 20 ppm): 0%
- Efficacy % (Cercospora beticola [1]; single compound, 20 ppm): 0%
- Efficacy % ([4]; 0.8 ppm, listed as (12.004) metalaxyl-m): 11%
- Efficacy % ([4]; 4 ppm): 8%
- Efficacy % ([4]; 20 ppm): 12%
- Efficacy (Cordana musae; 0.8 ppm): 0%
- Efficacy (Cordana musae; 4 ppm): 0% and 9%
- Efficacy (Cordana musae; 20 ppm): 0% and 8%
- Efficacy (Fusarium culmorum; 0.8 ppm, alone): 0%
- Efficacy (Fusarium culmorum; 4 ppm alone): 0%
- Efficacy (Fusarium culmorum; single active compound, 100 ppm): 22% and 23%
- Efficacy (Alternaria alternata; 4 ppm): 10%
- Efficacy (Parastagonospora nodorum; 0.8 ppm): 12%
- Efficacy (Parastagonospora nodorum; 4 ppm): 8%
- Efficacy (Parastagonospora nodorum; 20 ppm): 3%
- Efficacy % (Botrytis cinerea [2]; 0.8 ppm, alone): 5%
- Efficacy % (Botrytis cinerea [2]; 4 ppm alone): 3%
- Efficacy % (Botrytis cinerea [2]; 20 ppm alone): 4%
- Efficacy % (Botrytis cinerea [2]; 100 ppm alone): 13%
- Efficacy (Diaporthe citri [3]; Table F14, 0.8 ppm alone): 0%
- Efficacy (Diaporthe citri [3]; Table F14, 4 ppm alone): 0%
- Efficacy (Diaporthe citri [3]; Table F14, 20 ppm alone): 0%

Compound: COc1cc(C)c(C(=O)c2c(OC)ccc(Br)c2C)c(OC)c1OC [(15.016) metrafenone, metrafenone]
- inhibition of growth at 0.2 ppm (Cercospora beticola [1]; Cercospora beticola, 0.2 ppm, read-out: Efficacy %): 0%
- inhibition of growth at 1 ppm (Cercospora beticola [1]; Cercospora beticola, 1 ppm, read-out: Efficacy %): 0%
- inhibition of growth at 5 ppm (Cercospora beticola [1]; Cercospora beticola, read-out: Efficacy %): 10%
- inhibition of growth at 0.2 ppm (Cercospora beticola [1]; Cercospora beticola, single compound, 0.2 ppm, read-out: Efficacy %): 0%
- inhibition of growth at 5 ppm (Cercospora beticola [1]; Cercospora beticola, single compound, read-out: Efficacy %): 1%
- inhibition of growth at 0.04 ppm ([4]; 0.04 ppm, read-out: Efficacy %): 4%
- inhibition of growth at 0.2 ppm ([4]; 0.2 ppm, read-out: Efficacy %): 0%
- inhibition of growth at 0.04 ppm (Cordana musae; Neocordana musae, 0.04 ppm, read-out: Efficacy): 0%
- inhibition of growth at 0.2 ppm (Cordana musae; Neocordana musae, 0.2 ppm, read-out: Efficacy): 0%
- inhibition of growth at 1 ppm (Cordana musae; Neocordana musae, 1 ppm, read-out: Efficacy): 0%
- inhibition of growth at 5 ppm (Cordana musae; Neocordana musae, 5 ppm, read-out: Efficacy): 11%
- inhibition of growth at 4 ppm (Botrytis cinerea [5]; 4.0 ppm): 0%
- inhibition of growth at 20 ppm (Botrytis cinerea [5]; 20.0 ppm): 0%
- inhibition of growth at 1 ppm (Fusarium culmorum; Fusarium culmorum, 1 ppm, alone, read-out: Efficacy): 4%
- inhibition of growth at 0.04 ppm (Fusarium culmorum; Fusarium culmorum, single active compound, 0.04 ppm, read-out: Efficacy): 0%
- inhibition of growth at 0.2 ppm (Fusarium culmorum; Fusarium culmorum, single active compound, 0.2 ppm, read-out: Efficacy): 0%
- inhibition of growth at 1 ppm (Fusarium culmorum; Fusarium culmorum, single active compound, 1 ppm, read-out: Efficacy): 7%
- inhibition of growth at 5 ppm (Fusarium culmorum; Fusarium culmorum, single active compound, 5 ppm, read-out: Efficacy): 13%
- Efficacy (Fusarium culmorum; single active compound, 5 ppm): 13%
- inhibition of growth at 0.8 ppm (Diaporthe citri [6]; Table F11, 0.8 ppm alone): 0%
- inhibition of growth at 4 ppm (Diaporthe citri [6]; Table F11, 4.0 ppm alone): 0%
- inhibition of growth at 20 ppm (Diaporthe citri [6]; Table F11, 20.0 ppm alone): 0%
- inhibition of growth at 0.8 ppm (Diaporthe citri [6]; applied alone, 0.8 ppm): 0%
- inhibition of growth at 4 ppm (Diaporthe citri [6]; applied alone, 4.0 ppm): 10%
- inhibition of growth at 20 ppm (Diaporthe citri [6]; applied alone, 20.0 ppm): 0%
- Efficacy (Alternaria alternata; 0.2 ppm): 3%
- inhibition of growth at 0.2 ppm (Alternaria alternata; Alternaria alternata, 0.2 ppm, read-out: Efficacy): 3%
- inhibition of growth at 1 ppm (Alternaria alternata; Alternaria alternata, 1 ppm, read-out: Efficacy): 6%
- inhibition of growth at 5 ppm (Alternaria alternata; Alternaria alternata, 5 ppm, read-out: Efficacy): 16%
- inhibition of growth at 1 ppm (Alternaria alternata; Alternaria alternata, single compound, 1 ppm, read-out: Efficacy): 0%
- inhibition of growth at 0.04 ppm (Parastagonospora nodorum; Parastagonospora nodorum, 0.04 ppm, read-out: Efficacy): 0%
- inhibition of growth at 0.2 ppm (Parastagonospora nodorum; Parastagonospora nodorum, 0.2 ppm, read-out: Efficacy): 0%
- inhibition of growth at 1 ppm (Parastagonospora nodorum; Parastagonospora nodorum, 1 ppm, read-out: Efficacy): 0%
- inhibition of growth at 5 ppm (Parastagonospora nodorum; Parastagonospora nodorum, 5 ppm, read-out: Efficacy): 32%
- inhibition of growth at 5 ppm (Colletotrichum coccodes; Colletotrichum coccodes, single active compound at 5 ppm, read-out: Efficacy %): 2%
- inhibition of growth at 0.8 ppm ([7]; 0.8 ppm): 10%
- inhibition of growth at 4 ppm ([7]; 4.0 ppm): 12%
- inhibition of growth at 20 ppm ([7]; 20.0 ppm): 21%
- inhibition of growth at 0.8 ppm (Alternaria alternate; 0.8 ppm): 0%
- inhibition of growth at 4 ppm (Alternaria alternate; 4 ppm): 0%
- inhibition of growth at 20 ppm (Alternaria alternate; 20 ppm): 11%
- inhibition of growth at 0.8 ppm (Cercospora beticola [8]; 0.8 ppm): 10%
- inhibition of growth at 4 ppm (Cercospora beticola [8]; 4.0 ppm): 0%
- inhibition of growth at 20 ppm (Cercospora beticola [8]; 20.0 ppm): 0%
- Efficacy (Diaporthe citri [3]; Table F12, 1 ppm alone): 3%
- Efficacy (Diaporthe citri [3]; Table F12, 5 ppm alone): 0%
- Efficacy (Diaporthe citri [3]; Table F14, 0.04 ppm alone): 0%
- Efficacy (Diaporthe citri [3]; Table F14, 0.2 ppm alone): 0%
- Efficacy (Diaporthe citri [3]; Table F14, 1 ppm alone): 0%
- Efficacy (Diaporthe citri [3]; Table F14, 5 ppm alone): 0%
